Results from US11124554B2, “Modified ligand-gated ion channels and methods of use” (Howard Hughes Medical Institute, priority 2016, dated 2021).
Like-named read-outs stand apart in the source and are kept apart here.

How the values were obtained:
[1] = biological target: T1, α7-5HT3 (Homo sapiens, UniProt P36544, M226I/T225I); assay: Agonist potency (EC50), HEK cells expressing chimeric channel; format: cell-based, human α7 nAChR LBD, murine 5HT3 IPD
T1 construct: expressed in transfected cells; host or cells: HEK cells

[2] = biological target: T2, α7-GlyR (Homo sapiens, UniProt P36544); assay: as above; format: cell-based; conditions: HEK cells
T2 construct: expressed in transfected cells; host or cells: HEK cells

[3] = biological target: T3, α7^Q79G-GlyR^A298G (Homo sapiens, UniProt P36544, A298G/Q79G); assay: as above; format: cell-based; conditions: HEK cells
T3 construct: expressed in transfected cells; host or cells: HEK cells

[4] = biological target: T4, α7^W77F,Q79G,G175K-GlyR (Homo sapiens, UniProt P36544, G175K/Q79G/W77F); assay: Agonist potency at chimeric channel; format: cell-based; conditions: Table 6; read-out: Potency, a7GlyR W77F Q79G G175K
T4 construct: expressed in transfected cells

[5] = biological target: T5, α7^Q79G,Y115F,G175K-GlyR (Homo sapiens, UniProt P36544, G175K/Q79G/Y115F); assay: Agonist potency at chimeric channel; format: cell-based; conditions: Table 6; read-out: Potency, a7Gly Q79G G175K Y115F
T5 construct: expressed in transfected cells

[6] = biological target: T6, α7^Q79A-5HT3 (Homo sapiens, UniProt P36544, M226I/Q79A/T225I); assay: Agonist potency (EC50), HEK cells expressing chimeric channel; format: cell-based, human α7 nAChR LBD, murine 5HT3 IPD; conditions: HEK cells; Table 1; read-out: Mean EC50, α7^Q79A-5HT3
T6 construct: expressed in transfected cells; host or cells: HEK cells

[7] = biological target: T7, α7^Q79G-5HT3 (Homo sapiens, UniProt P36544, M226I/Q79G/T225I); assay: as above; format: cell-based, human α7 nAChR LBD, murine 5HT3 IPD; conditions: HEK cells; Table 1; read-out: Mean EC50, α7^Q79G-5HT3
T7 construct: expressed in transfected cells; host or cells: HEK cells

[8] = biological target: T8, α7^Q79S-5HT3 (Homo sapiens, UniProt P36544, M226I/Q79S/T225I); assay: as above; format: cell-based, human α7 nAChR LBD, murine 5HT3 IPD; conditions: HEK cells; Table 1; read-out: Mean EC50, α7^Q79S-5HT3
T8 construct: expressed in transfected cells; host or cells: HEK cells

[9] = biological target: T9, α7^Q79A-GlyR (Homo sapiens, UniProt P36544, Q79A); assay: as above; format: cell-based; conditions: HEK cells; Table 2; read-out: Mean EC50 and SEM in parentheses, α7^Q79A-GlyR
T9 construct: expressed in transfected cells; host or cells: HEK cells

[10] = biological target: T10, α7^Q79G-GlyR (Homo sapiens, UniProt P36544, Q79G); assay: as above; format: cell-based; conditions: HEK cells; Table 2; read-out: Mean EC50 and SEM in parentheses, α7^Q79G-GlyR
T10 construct: expressed in transfected cells; host or cells: HEK cells

[11] = biological target: T11, α7-GlyR^A298G (Homo sapiens, UniProt P36544, A298G); assay: as above; format: cell-based; conditions: HEK cells; Table 2; read-out: Mean EC50 and SEM in parentheses, α7-GlyR^A298G
T11 construct: expressed in transfected cells; host or cells: HEK cells

[12] = biological target: T12, α7^G175K-GlyR (Homo sapiens, UniProt P36544, G175K); assay: Agonist potency at chimeric channel; format: cell-based; conditions: for EC50: Table 6, read-out: Potency, a7GlyR G175K
T12 construct: expressed in transfected cells

[13] = biological target: T13, α7^Y115F,G175K-GlyR (Homo sapiens, UniProt P36544, G175K/Y115F); assay: Agonist potency at chimeric channel; format: cell-based; conditions: Table 6; read-out: Potency, a7GlyR Y115F G175K
T13 construct: expressed in transfected cells

[14] = biological target: T14, α7^Q79G,G175K-GlyR (Homo sapiens, UniProt P36544, G175K/Q79G); assay: Agonist potency at chimeric channel; format: cell-based; conditions: Table 6; read-out: Potency, a7GlyR Q79G G175K
T14 construct: expressed in transfected cells

[15] = biological target: T15, α7GlyR Q79G G175K Y115F R27D E41R (Homo sapiens, UniProt P36544, E41R/G175K/Q79G/R27D/Y115F); assay: Agonist potency at chimeric channel; format: cell-based; conditions: Table 6; read-out: Potency, a7GlyR Q79G G175K Y115F R27D E41R
T15 construct: expressed in transfected cells

[16] = test system: α7GlyR chimeric channels with G175K and A298G mutations; format: cell-based, human; conditions: read-out: Agonist potency
[17] = HEK cells, Table 3, read-out: α7-5HT3 EC50
[18] = Table 3, read-out: α7-GlyR EC50
[19] = Table 3, read-out: α7^Q79G-GlyR^A298G EC50
[20] = Table 6, read-out: Potency, a7-5HT3

T13 sequence (P36544 with tags, fused parts or gaps Y115F/G175K): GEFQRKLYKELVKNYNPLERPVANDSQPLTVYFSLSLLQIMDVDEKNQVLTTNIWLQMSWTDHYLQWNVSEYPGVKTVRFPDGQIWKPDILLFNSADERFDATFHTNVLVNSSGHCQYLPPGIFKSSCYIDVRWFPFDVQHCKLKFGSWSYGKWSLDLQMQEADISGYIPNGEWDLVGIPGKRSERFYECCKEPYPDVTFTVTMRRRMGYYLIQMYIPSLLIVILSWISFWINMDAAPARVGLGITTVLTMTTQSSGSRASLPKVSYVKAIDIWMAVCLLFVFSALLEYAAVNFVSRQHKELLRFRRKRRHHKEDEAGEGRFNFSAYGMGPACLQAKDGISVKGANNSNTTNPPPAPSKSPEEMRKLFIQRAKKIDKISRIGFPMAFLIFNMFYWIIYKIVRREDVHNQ
T12 sequence (P36544 with tags, fused parts or gaps G175K): as the sequence (P36544 with tags, fused parts or gaps Y115F/G175K) above, with F93Y counted along it
T4 sequence (P36544 with tags, fused parts or gaps W77F/Q79G/G175K): as the sequence (P36544 with tags, fused parts or gaps Y115F/G175K) above, with W55F, Q57G, F93Y counted along it
T1 sequence (P36544 with tags, fused parts or gaps T225I/M226I): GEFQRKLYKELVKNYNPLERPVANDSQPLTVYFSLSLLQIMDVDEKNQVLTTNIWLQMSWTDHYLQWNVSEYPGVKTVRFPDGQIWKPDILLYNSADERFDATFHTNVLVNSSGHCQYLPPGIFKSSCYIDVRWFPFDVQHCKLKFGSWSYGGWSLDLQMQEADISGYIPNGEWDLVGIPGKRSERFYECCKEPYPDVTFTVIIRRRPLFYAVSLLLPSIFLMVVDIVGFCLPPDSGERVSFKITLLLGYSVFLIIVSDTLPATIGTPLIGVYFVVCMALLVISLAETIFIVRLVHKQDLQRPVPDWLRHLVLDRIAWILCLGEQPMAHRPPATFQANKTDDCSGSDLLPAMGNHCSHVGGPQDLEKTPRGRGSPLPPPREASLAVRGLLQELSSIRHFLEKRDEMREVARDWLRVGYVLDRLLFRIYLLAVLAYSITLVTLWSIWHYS
T3 sequence (P36544 with tags, fused parts or gaps Q79G): as the sequence (P36544 with tags, fused parts or gaps Y115F/G175K) above, with Q57G, F93Y, K153G, A276G counted along it
T2 sequence (P36544 with tags, fused parts or gaps): as the sequence (P36544 with tags, fused parts or gaps Y115F/G175K) above, with F93Y, K153G counted along it
T5 sequence (P36544 with tags, fused parts or gaps Q79G/Y115F/G175K): as the sequence (P36544 with tags, fused parts or gaps Y115F/G175K) above, with Q57G counted along it
T15 sequence (P36544 with tags, fused parts or gaps R27D/E41R/Q79G/Y115F/G175K): as the sequence (P36544 with tags, fused parts or gaps Y115F/G175K) above, with R5D, E19R, Q57G counted along it
T14 sequence (P36544 with tags, fused parts or gaps Q79G/G175K): as the sequence (P36544 with tags, fused parts or gaps Y115F/G175K) above, with Q57G, F93Y counted along it
T8 sequence (P36544 with tags, fused parts or gaps Q79S/T225I/M226I): as the sequence (P36544 with tags, fused parts or gaps T225I/M226I) above, with Q57S counted along it
T11 sequence (P36544 with tags, fused parts or gaps, stated change not applied): as the sequence (P36544 with tags, fused parts or gaps Y115F/G175K) above, with F93Y, K153G, A276G counted along it
T10 sequence (P36544 with tags, fused parts or gaps Q79G): as the sequence (P36544 with tags, fused parts or gaps Y115F/G175K) above, with Q57G, F93Y, K153G counted along it
T7 sequence (P36544 with tags, fused parts or gaps Q79G/T225I/M226I): as the sequence (P36544 with tags, fused parts or gaps T225I/M226I) above, with Q57G counted along it
T9 sequence (P36544 with tags, fused parts or gaps Q79A): as the sequence (P36544 with tags, fused parts or gaps Y115F/G175K) above, with Q57A, F93Y, K153G counted along it
T6 sequence (P36544 with tags, fused parts or gaps Q79A/T225I/M226I): as the sequence (P36544 with tags, fused parts or gaps T225I/M226I) above, with Q57A counted along it

With `O=C(NC1C2CCN(CC2)C1Cc1cccnc1)c1ccc(C(F)(F)F)cc1` (mixture of isomers) [Compound 0436] the EC50 [1, 17] was 0.84 µM, the EC50 [2, 18] was 0.31 µM and the EC50 [3, 19] was 0.006 µM.
`c1ccc2c(c1)Sc1ccccc1N2CC1CN2CCC1CC2` (stereo not shown) [Mequitazine] was tested, and the EC50 [1, 20] was > 30 µM, the EC50 [4] was 0.15 µM and the EC50 [5] was > 10 µM.
Work on `Cn1cc(C(=O)C(=O)NC2CN3CCC2CC3)c2ccccc21` (stereo not shown) [RS56812] yielded an EC50 ([1]; HEK cells, Table 1, read-out: Mean EC50, α7-5HT3) of 10 µM, an EC50 [6] of 6.8 µM and an EC50 [7] of 1.4 µM. It also gave an EC50 [8] of 5.7 µM, an EC50 ([2]; Table 2, read-out: Mean EC50 and SEM in parentheses, α7 GlyR) of 6.5 µM and an EC50 [9] of 3.5 µM. For the same compound, the EC50 [10] was 2 µM, the EC50 [11] was 2.3 µM and the EC50 ([3]; Table 2, read-out: Mean EC50 and SEM in parentheses, α7^Q79G-GlyR^A298G) was 0.61 µM.
`Fc1c(Cl)cccc1NC(=S)N[C@H]1CN2CCC1CC2` [Compound 701] was tested, and the EC50 [1, 20] was > 100 µM.
`COc1ccc(OC)c(C(=O)NC2C3CCN(CC3)C2Cc2cccnc2)c1` (mixture of isomers) [Compound 0434] was tested, and the EC50 [1, 17] was > 10 µM, the EC50 [2, 18] was > 10 µM and the EC50 [3, 19] was 0.19 µM.
For `Fc1ccc(NC(=S)N[C@H]2CN3CCC2CC3)cc1Cl` [Compound 702], the EC50 [1, 20] was > 100 µM.
In the case of `FC(F)(F)Oc1ccc(NC(=S)N[C@@H]2CN3CCC2CC3)cc1` [Compound 713], the EC50 [1, 20] is reported as > 100 µM, the EC50 [12] is reported as 2.1 µM and the EC50 [13] is reported as > 10 µM. For the same compound, the EC50 [14] was 0.54 µM, the EC50 [5] was 23.9 µM and the EC50 [15] was > 10 µM.
For `COc1ccc2[nH]cc(C(=O)O[C@H]3C[C@H]4CC[C@@H](C3)N4C)c2c1` [Compound 736], the EC50 [1, 20] was 0.83 µM, the EC50 [13] was 0.57 µM and the EC50 [14] was 0.044 µM. The EC50 [4] was 0.06 µM, the EC50 [5] was 0.078 µM and the EC50 [15] was 0.078 µM.
For `CN(C)CCCN1c2ccccc2Sc2ccccc21` [Promazine], the EC50 [1, 20] was > 100 µM and the EC50 [5] was > 100 µM.
With `Cc1ccc(Cl)cc1NC(=S)N[C@H]1CN2CCC1CC2` [Compound 705] the EC50 [1, 20] was > 100 µM and the EC50 [13] was > 10 µM.
For `CN1C2CCC1CC(NC(=S)c1cn(C)c3ccccc13)C2` (stereo not shown) [Compound 622], the EC50 [1, 20] was > 100 µM, the EC50 [12] was 0.87 µM and the EC50 [13] was 2.5 µM. For the same compound, the EC50 [4] was 1.7 µM and the EC50 [5] was 0.93 µM.
`CN1C2CCC1CC(NC(=S)c1c[nH]c3ccccc13)C2` (stereo not shown) [Compound 0542] was tested, and the EC50 [1, 17] was 3.8 µM and the EC50 [3, 19] was 0.072 µM.
For `CN1CCCC1c1cccnc1` (stereo not shown) [Nicotine], the “potency enhancement over α7-GlyR” value [12] was 10 fold, the EC50 ([16]; α7GlyR Q79G A298G G175K Y115F) was 3.3 µM and the EC50 ([16]; α7GlyR Q79G A298G P2161) was 1.6 µM. For the same compound, the EC50 ([16]; α7GlyR Q79G A298G Y115F K395 K396A) was 16.5 µM, the EC50 ([16]; α7GlyR Q79G G175K A298G) was 0.11 µM and the EC50 ([16]; α7GlyR Q79G W77F A298G) was 3.8 µM.
